Measured values as given in ChEMBL document CHEMBL5728776, “Hydrocarbylsulfonyl-substituted pyridines and their use in the treatment of cancer” (2021).

Key:
[1] = molecular target: T1, Glutathione reductase, mitochondrial (Homo sapiens, UniProt P00390); experiment: (§1) Inhibition of Recombinant TrxR1: Small molecule inhibition of recombinant thioredoxin reductase 1 (TrxR1) and gluthathione reductase (GR) was examined in 96-well plate format. 30 nM TrxR1 was incubated in the presence of 250 μM NADPH, 0.1 mg/ml BSA, and various concentrations of compound (1% DMSO final) in 50 mM Tris (pH 7.5) and 2 mM EDTA buffer for 15 minutes. Following the incubation period, 2 mM DTNB was added to each well and the change in O.D. at 412 nm was followed. Percent activity was determined using DMSO vehicle and no TrxR1 (blank) controls. 2 nM GR was incubated in the presence of 250 μM NADPH, 0.1 mg/ml BSA, and various concentrations of compounds (1% DMSO final) in 50 mM Tris (pH 7.5) and 2 mM EDTA buffer for 15 minutes. Following the incubation period, 1 mM GSSG was added to each well and the change in O.D. at 340 nm was followed. Percent activity was determined using DMSO vehicle and no GR (blank) controls.
T1 sequence (P00390 whole entry): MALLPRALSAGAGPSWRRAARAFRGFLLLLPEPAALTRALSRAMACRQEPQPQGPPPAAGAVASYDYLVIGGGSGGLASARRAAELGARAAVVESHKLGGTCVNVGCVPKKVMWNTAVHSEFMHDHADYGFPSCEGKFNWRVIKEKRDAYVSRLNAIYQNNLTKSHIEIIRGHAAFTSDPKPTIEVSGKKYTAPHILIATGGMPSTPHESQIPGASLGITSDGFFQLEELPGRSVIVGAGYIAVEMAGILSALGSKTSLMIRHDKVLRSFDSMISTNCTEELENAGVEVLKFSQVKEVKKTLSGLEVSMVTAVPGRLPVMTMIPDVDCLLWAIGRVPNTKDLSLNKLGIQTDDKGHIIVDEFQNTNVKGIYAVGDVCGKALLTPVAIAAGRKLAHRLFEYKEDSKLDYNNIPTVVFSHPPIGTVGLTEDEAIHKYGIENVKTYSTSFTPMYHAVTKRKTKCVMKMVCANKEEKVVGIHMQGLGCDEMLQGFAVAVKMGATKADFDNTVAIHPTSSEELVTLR

[2] = molecular target: T2, Thioredoxin reductase 1, cytoplasmic (Homo sapiens, UniProt Q16881); experiment: as §1
T2 sequence (Q16881 whole entry): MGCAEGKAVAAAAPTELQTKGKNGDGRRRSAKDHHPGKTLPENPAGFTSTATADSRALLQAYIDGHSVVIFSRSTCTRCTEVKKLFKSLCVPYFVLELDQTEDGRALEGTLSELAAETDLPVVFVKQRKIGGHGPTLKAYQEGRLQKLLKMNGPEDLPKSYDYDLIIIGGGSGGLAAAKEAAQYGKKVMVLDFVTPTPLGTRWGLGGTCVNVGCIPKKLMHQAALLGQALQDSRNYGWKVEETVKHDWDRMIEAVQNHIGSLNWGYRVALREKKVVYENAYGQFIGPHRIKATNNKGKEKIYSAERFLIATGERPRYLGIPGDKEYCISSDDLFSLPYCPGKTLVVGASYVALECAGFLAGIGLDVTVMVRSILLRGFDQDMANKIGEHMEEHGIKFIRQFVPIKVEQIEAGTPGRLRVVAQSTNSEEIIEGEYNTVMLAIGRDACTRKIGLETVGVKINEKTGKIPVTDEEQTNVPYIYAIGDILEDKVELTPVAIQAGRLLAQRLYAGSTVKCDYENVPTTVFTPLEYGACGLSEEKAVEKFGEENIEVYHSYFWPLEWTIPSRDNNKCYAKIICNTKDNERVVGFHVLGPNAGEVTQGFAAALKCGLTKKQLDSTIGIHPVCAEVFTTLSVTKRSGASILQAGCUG

CN(C)c1ccc([N+](=O)[O-])c(S(=O)(=O)Cc2ccccc2)n1
IC50 [1]: > 100 µM
IC50 [2]: 276 nM
